Results: US11945812B2, “Annulated 2-amino-3-cyano thiophenes and derivatives for the treatment of cancer” (Boehringer Ingelheim International GmbH, priority 2020, dated 2024)
Where two headings read alike, the source gives them in different places.

Tests used:
[1] = biological target: T1, KRAS G12C::SOS1 protein-protein interaction (Homo sapiens, UniProt P01116, C118S/C51S/C80L/G12C); assay: KRAS::SOS1 AlphaScreen binding assay; settings: KRAS G12C::SOS1 AlphaScreen
T1 construct: His6 (N); host or cells: E. coli
Text: KRAS::SOS1 AlphaScreen Binding Assay
Reagents: • GST-tagged SOS1 (564_1049_GST_TEV_ECO) produced in-house • GST-TEV-SOS1 (564-1049) is purchased from Viva Biotech Ltd. • The expression construct of KRAS G12C (amino acids 1-169 of reference sequence P01116-2 (uniprot), with additional mutations: C51S, C80L, and C118S) containing a C-terminal avi-tag was obtained by gene synthesis (GeneArt, Thermo Fisher) in donor vector (pDONR-221) and transferred by recombinant cloning into pDEST17 vector bearing an N-terminal His6-tag. The protein was expressed in E. coli and the purified protein was biotinylated with the E. coli biotin ligase (BirA) before usage. • GDP (Sigma Cat No G7127) • AlphaLISA Glutathione Acceptor Beads (PerkinElmer, Cat No AL109) • AlphaScreen Streptavidin Donor Beads (PerkinElmer Cat No 6760002) • Assay plates: Proxiplate-384 PLUS, white (PerkinElmer, Cat No 6008289)
Assay Buffer: • 1×PBS • 0.1% BSA • 0.05% Tween 20
7.5 nM (final assay concentration) KRAS G12C, 10 μM (final assay concentration) GDP and 5 nM (final assay concentration) GST-SOS1 are mixed in assay buffer prior to use and kept at room temperature.
AlphaLISA Glutathione Acceptor Beads and AlphaScreen Streptavidin Donor Beads are mixed in assay buffer at a concentration of 10 μg/mL (final assay concentration) each prior to use and kept at room temperature.
Compounds are diluted to a final start concentration of 100 μM and are tested in duplicate. Assay-ready plates (ARPs) are generated using an Access Labcyte Workstation with a Labcyte Echo 550 or 555 accoustic dispenser. For compound a start concentration of 100 μM, 150 nL of compound solution is transferred per well in 11 concentrations in duplicate with serial 1:5 dilutions.
The assay is run using a fully automated robotic system in a darkened room below 100 Lux. 10 μL of KRAS::SOS1 GDP mix is added into columns 1-24 to the 150 nL of compound solution (final dilution in the assay 1:100, final DMSO concentration 1%).
After 30 minutes incubation time 5 μL of bead mix is added into columns 1-23. Plates are kept at room temperature in a darkened incubator. After further 60 minutes incubation, the signal is measured using a PerkinElmer Envision HTS Multilabel Reader using the AlphaScreen specifications from PerkinElmer. Each plate contains the following controls: • diluted DMSO+KRAS::SOS1 GDP mix+bead mix • diluted DMSO+KRAS::SOS1 GDP mix
IC50 values are calculated and analyzed using a 4 parametric logistic model.
Tables of example compounds disclosed herein contain IC50 values determined using the above assay.

[2] = system: ERK phosphorylation in NCI-H358_Cas9_SOS2; assay: ERK phosphorylation assay 2 (AlphaLISA SureFire Ultra p-ERK1/2), SOS2 knock-out; type: cell-based; settings: Homo sapiens, NCI-H358; assay 2 (marked with *); read-out: IC50 H358 pERK
Text: ERK Phosphorylation Assay
Materials Used for the Assay;

[3] = biological target: Ba/F3 cells bearing a KRAS G12C mutation (Homo sapiens, UniProt P01116, G12C, cells depend on it); assay: Ba/F3 cell model proliferation assay (AlamarBlue, 72 h); type: cell-based
Procedure: Ba/F3 Cell Model Generation and Proliferation Assay
Plasmids containing KRASG12 mutants were obtained from GeneScript. To generate KRASG12-dependent Ba/F3 models, Ba/F3 cells were transduced with retroviruses containing vectors that harbor KRASG12 isoforms. Platinum-E cells (Cell Biolabs) were used for retrovirus packaging. Retrovirus was added to Ba/F3 cells. To ensure infection, 4 μg/mL polybrene was added and cells were spinfected. […] Cells with an infection efficiency of 10% to 20% were further cultivated and puromycin selection with 1 μg/mL was initiated. As a control, parental Ba/F3 cells were used to show selection status. Selection was considered successful when parental Ba/F3 cells cultures died. To evaluate the transforming potential of KRASG12 mutations, the growth medium was no longer supplemented with IL-3. Ba/F3 cells harboring the empty vector were used as a control. Approximately ten days before conducting the experiments, puromycin was left out.
All treatments were performed in technical duplicates. The assay is run using a fully automated robotic system. Treated cells were incubated for 72 h at 37° C. with 5% CO2. AlamarBlue™ (ThermoFisher), a viability stain, was added and fluorescence measured in the PerkinElmer Envision HTS Multilabel Reader.

[4] = Plasma protein binding (equilibrium dialysis), human plasma; type: in vitro ADME; settings: read-out: PPB human fu
Procedure: (§1) Plasma Protein Binding (PPB)
(§2) Binding of test compound to plasma was determined using equilibrium dialysis (ED) and quantitative mass spectrometry interfaced with liquid chromatography (LC-MS). In brief, ED was performed with dialysis devices consisting of two chambers separated by a semipermeable membrane with a molecular weight cut-off of 5-10 kg/mol. One chamber was filled with commercially sourced plasma (mouse and human plasma, respectively) or serum (10% FCS in PBS) containing 1-10 μmol/L test compound and the other chamber was filled with phosphate-buffer saline (PBS) with or without dextran. The dialysis chamber was incubated for 3-5 hours at 37° C. After incubation, protein was precipitated from aliquots of each chamber and the concentration of test compound in the supernatant of the plasma-containing compartment (cplasma) and of the buffer-containing compartment (Cbuffer) was determined by LC-MS. The fraction of unbound test compound (not bound to plasma) (fu) was calculated according to the following equation: […]

[5] = Plasma protein binding (equilibrium dialysis), mouse plasma; type: in vitro ADME; settings: read-out: PPB mouse fu
Procedure: as §1, §2

[6] = Plasma protein binding (equilibrium dialysis), serum 10% FCS in PBS; type: in vitro ADME; settings: bovine, 10% FCS in PBS (serum), read-out: PPB 10% FCS fu
Procedure: as §1, §2

[7] = Ba/F3 KRAS G12C cells, 72 h, 10% FCS, uncorrected, read-out: IC50 Ba/F3 KRASG12C
[8] = corrected by plasma protein binding in 10% FCS (fraction unbound), read-out: IC50 Ba/F3 KRASG12C (corrected)

Ba/F3 cells bearing a KRAS G12C mutation, sequence (P01116 whole entry G12C): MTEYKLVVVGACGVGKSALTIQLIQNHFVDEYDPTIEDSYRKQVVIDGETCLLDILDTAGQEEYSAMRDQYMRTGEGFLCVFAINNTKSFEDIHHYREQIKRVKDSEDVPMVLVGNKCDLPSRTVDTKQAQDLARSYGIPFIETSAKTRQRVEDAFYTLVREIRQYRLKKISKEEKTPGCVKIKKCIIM
T1 sequence (P01116 1-169 isoform P01116-2 G12C/C51S/C80L/C118S): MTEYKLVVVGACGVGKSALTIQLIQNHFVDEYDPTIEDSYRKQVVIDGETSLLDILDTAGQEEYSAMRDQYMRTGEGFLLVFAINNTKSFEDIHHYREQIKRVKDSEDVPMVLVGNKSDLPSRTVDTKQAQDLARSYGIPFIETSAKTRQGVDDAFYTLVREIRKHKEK

| SMILES | IC50 [1] [nM] | IC50 [2] [nM] | GI50 [3, 7] [nM] | fraction unbound [4] | GI50 [3, 8] [nM] | fraction unbound [5] | fraction unbound [6] |
| --- | --- | --- | --- | --- | --- | --- | --- |
| C=CC(=O)N1CCN(c2cc(-c3cc([C@@]4(C)CCCc5sc(N)c(C#N)c54)sn3)nc(O[C@@H](C)[C@@H]3CCCN3C)n2)CC1 [Id-3] | 1.7 | 1.1 | < 1.3 |  |  |  |  |
| C=C(F)C(=O)N1CCC(Oc2cc(N3CCN(C)C[C@@H]3C)nc(-c3cc(C4(C)CCCc5sc(N)c(C#N)c54)on3)n2)CC1 (some centres unmarked) [Ib-13] | 278 | 1140 | 350 | 0.005 | 39.9 | < 0.0005 | 0.114 |
| C=CC(=O)N1CCC(Oc2cc(O[C@@H](C)[C@@H]3CCCN3C)nc(-c3cc([C@@]4(C)CCCc5sc(N)c(C#N)c54)on3)n2)CC1 [Ib-7] | 1.5 | 0.6 | 0.2 | 0.018 | 0.03 | 0.007 | 0.127 |
| COC/C=C/C(=O)N1CCN(c2cc(O[C@@H](C)[C@@H]3CCCN3C)nc(-c3cc([C@@]4(C)CCCc5sc(N)c(C#N)c54)sn3)n2)CC12CC2 [Id-9] | 21 | 58.9 | 44 |  | 14.8 | 0.003 | 0.336 |
| C=CC(=O)N1CCC(Oc2cc(O[C@@H](C)[C@@H]3CCCN3C)nc(-c3cc([C@@]4(C)CCCc5sc(N)c(C#N)c54)no3)n2)CC1 [Ic-6] | 1.6 | 0.5 | 0.7 |  | 0.07 | < 0.001 | 0.093 |
| C=C(F)C(=O)N1CCC(Oc2cc(O[C@@H](C)[C@@H]3CCCN3C)nc(-c3cc([C@@]4(C)CCCc5sc(N)c(C#N)c54)sn3)n2)CC1 [Id-8] | 3 | 16.1 | 4.3 | 0.004 | 1.51 | < 0.0009 | 0.352 |
| C=CC(=O)N1CCC(Oc2cc(N3CCN(C)C[C@@H]3C)nc(-c3cc(C4(C)CCCc5sc(N)c(C#N)c54)on3)n2)CC1 (some centres unmarked) [Ib-8] | 13 | 12.7 | 13.5 | 0.014 | 2.67 | 0.001 | 0.198 |
| C=CC(=O)N1[C@H](C)CN(c2cc(O[C@@H](C)[C@@H]3CCCN3C)nc(-c3cc([C@@]4(C)CCCc5sc(N)c(C#N)c54)on3)n2)C[C@@H]1C [Ib-3] | 2 | 4.1 | 3.9 | 0.018 | 0.3 | 0.004 | 0.078 |
| C=CC(=O)N1[C@@H](C)CN(c2nc(-c3cc([C@@]4(C)CCCc5sc(N)c(C#N)c54)on3)nc(O[C@@H](C)[C@@H]3CCCN3C)c2Cl)C[C@@H]1C [Ib-9] | 4 | 11.3 | 2.9 | 0.002 | 0.08 | 0.001 | 0.026 |
| C=CC(=O)N1CCN(c2cc(-c3cc(C4(C)CCCc5sc(N)c(C#N)c54)on3)nc(O[C@@H](C)[C@@H]3CCCN3C)n2)CC1 (some centres unmarked) [Ib-2] | 2 | 3.1 |  |  |  |  |  |
| COC/C=C/C(=O)N1CCN(c2cc(O[C@@H](C)[C@@H]3CCCN3C)nc(-c3cc([C@@]4(C)CCCc5sc(N)c(C#N)c54)on3)n2)CC12CC2 [Ib-16] | 42 | 969 | 124 | 0.02 | 5.45 | 0.002 | 0.044 |
| COC/C=C/C(=O)N1CCN(c2cc(O[C@@H](C)[C@@H]3CCCN3C)nc(-c3cc(C4(C)CCCc5sc(N)c(C#N)c54)on3)n2)CC1 (some centres unmarked) [Ib-15] | 17 | 32.7 | 72.4 | 0.041 | 13.4 | 0.011 | 0.185 |
| C=C(F)C(=O)N1CCN(c2cc(O[C@@H](C)[C@@H]3CCCN3C)nc(-c3cc(C4(C)CCCc5sc(N)c(C#N)c54)sn3)n2)CC1 (some centres unmarked) [Id-7] | 5 | 20.5 | 5.4 |  |  |  |  |
| C=C(F)C(=O)N1CCN(c2nc(OC[C@@H]3CCCN3C)nc3c2CCN(c2cccc4cccc(Cl)c24)C3)C[C@@H]1CC#N [adagrasib, reference compound] |  |  |  | 0.014 |  | 0.004 | 0.43 |
| C=C(F)C(=O)N1[C@@H](C)CN(c2nc(-c3cc([C@@]4(C)CCCc5sc(N)c(C#N)c54)on3)nc(O[C@@H](C)[C@@H]3CCCN3C)c2Cl)C[C@@H]1C [Ib-12] | 74 | 830 | 67.9 | < 0.00052 | 1.09 | < 0.0004 | 0.016 |
